{"source": "patent US20210177861A1", "about": "“NRF2 ACTIVATOR FOR THE TREATMENT OF ACUTE LUNG INJURY, ACUTE RESPIRATORY DISTRESS SYNDROME AND MULTIPLE ORGAN DYSFUNCTION SYNDROME” (GLAXOSMITHKLINE INTELLECTUAL PROPERTY DEVELOPMENT LIMITED, priority 2017, published 2021)", "key": {"[1]": {"system": "animals with hyperoxia-induced ALI", "conditions": "animals treated with Bardoxolone; cited from earlier work"}, "[2]": {"system": "mice exposed to ozone", "test": "Repeated ozone exposure, alveolar barrier breakdown (serum surfactant protein-D, mtDNA)", "format": "in vivo, mouse", "conditions": "FIG. 6", "description": "Mice were exposed to ozone (1.5 ppm) for 3 hrs, twice per week for 3 weeks. Compound 1 was administered for 5 days/week, with the first dose administered 1 hour prior to first ozone administration. Blood/serum was collected 2 hrs after the final ozone exposure. Surfactant protein-D was measured using a commercially available ELISA kit. All data represent mean+/−S.E.M.\nFor determination of mtDNA damage (21), 15 ng of DNA in long chain PCR buffer was coupled with appropriate long and short primers for murine tissues. The reaction mixture was essentially the same for both long and short runs with the exception that the [Mg++] was 1.2 and 1.1 mM, respectively. For mouse tissues, the following thermocycler conditions were utilized: 94° C.×2 min followed by 19 cycles at 94° C.×15 sec, 64° C.×30 sec, 68° C.×8 min and finished at 72° C.×7 min; 94° C.×2 min, 94° C.×15 sec, 60° C.×30 sec, 72° C.×45 sec, and finished at 72° C.×7 min for the long and short PCR, respectively. The long and short primer sequences for mouse;\nFor both species, the long and short PCR products were then diluted 1:10 with Tris EDTA buffer containing 5 μl/ml of Pico Green (Molecular Probes, Invitrogen, Carlsbad Calif.) and fluorescence was monitored (485 nm excitation/528 nm emission, Envision Perkin Elmer, Waltham, Mass.). The replicates for each sample were averaged, the long primer was subtracted from the short primer, and transformed into percent of control using normalization functions (GraphPad Prism v6.0, La Jolla, Calif.). The data were calculated to reflect an increase in damage by subtracting the long primer from the short primer, rather than the opposite which would show the reduction of signal.\nSurfactant protein-D (SP-D) was measured using a commercially available kit (Mouse Quantikine SP-D, R&D Systems #MSFPDO, Minneapolis, Minn.). Absorbances were monitored at 450 and 540 nm using a microplate spectrophotometer (Powerwave, BioTek, Winooski, Vt.) with Gen5 software (version 2.03.Ink). […] Degradation or breakdown of alveolar barrier and leakage of water into the alveolar is measured by wet:dry ratio. […]"}, "[3]": {"system": "paraquat-treated rats", "test": "PQ-induced acute lung injury model (tracheal instillation of paraquat)", "format": "in vivo, rat", "text": "The model of PQ-induced increase in lung edema formation described in Rumsey, W., et al., (Mutagenesis. 2017, 32(3):343-353) is incorporated by reference in its entirety. In support of this invention, ALI was stimulated by the tracheal instillation of PQ which damages mtDNA in lung cells and provokes a loss of epithelial/endothelial integrity and edema formation.\nAge-matched male Lewis rats (250-400 g, Charles River Breeding Laboratories, Wilmington, Mass.) were allowed free access to food and water. Animals were administered NRF2 compound via tracheal instillation 24 hours prior to oxidative insult.\nFor studies using PQ (or N,N′-dimethyl-4,4′-[…], Sigma Aldrich, St Louis, Mo.) as the toxin, aliquots were prepared in sterile phosphate-buffered saline (PBS) and instilled directly to the trachea of the rat while under isoflurane anesthesia. Rats were anesthetized in a small acrylic induction box with 2-5% isoflurane gas. When surgical anesthesia was obtained (assessed by loss of the righting reflex followed by use of the pedal withdrawal reflex), the rat was removed from the box and placed supine on a head up, tilted platform. The trachea was illuminated and either PQ or vehicle (300 μl, doses identified in figure legends) was directly instilled into the trachea, anterior to the primary bifurcation at the carina, using a blunt-tipped needle. The animal was returned to a recovery cage, where the righting reflex was regained in 2-3 minutes.\nTo monitor changes in airway mechanics, rats were placed into individual plethysmograph chambers (BUXCO Electronics, Troy, N.Y.). Fresh air was supplied by bias flow pumps to the chambers. Baseline respiratory (Penh) values were collected prior to administration of PQ and on succeeding days after administration of the agent. An average Penh was calculated for a period of 5 min where enhanced pause (Penh=[(expiratory time/relaxation time)−1]×(peak expiratory flow/peak inspiratory flow)) and relaxation time is the amount of time required for 70% of the tidal volume to be expired.\nFor measurements of edema formation in the lungs, the tissue was excised and weighed gravimetrically. A portion was dried overnight in an oven at […]. and weighed for dry weight.\nIn some studies, bronchoalveolar lavage was performed to identify the immune cells infiltrating the lung in response to the toxicant. After the animals were euthanized (Fatal Plus, 100 mg/kg i.p.), the trachea was surgically exposed and a blunt-tipped needle was inserted into the trachea for administration of lavage fluid (5×5 ml Dulbecco's phosphate buffered saline, PBS). The lavage fluid was collected, placed on ice and centrifuged (3000 rpm×10 min, Beckman-Coulter, Danvers, Mass.). Supernatant was aspirated and frozen whereas the pellet was resuspended in 5 ml of PBS. An aliquot (100 μl) was centrifuged (300 rpm×5 min, cytospin, Thermo-Shandon, Waltham, Mass.) and a separate sample prepared as 1:5 dilution for total cell counts using a hemocytometer. Aliquots of cells were placed on slides and stained (Kwik-Diff-Quick, Thermo-Shandon, Waltham, Mass.) according to manufacturer's instructions. At least 200 cells were counted and percentages of different cell types were calculated (macrophages and neutrophils).\nFor extraction of either RNA or DNA, the tissue was added to lysis buffer (Kingfisher DNA or RNA extraction kit, Thermo Fisher Scientific, Waltham, Mass.) and the samples were processed according to the manufacturer's instructions. The nucleotide quantities were determined with respective Qubit kits (Thermo Fisher, Waltham, Mass.). For measurement of mtDNA copy number by quantitative real time PCR, nuclear and mitochondrial primer sets (1 pmol/μl), and 2× SYBR green master mix (Life Technologies, Waltham, Mass.) were added to 50 ng of DNA combined with water (total 20 ul). […]"}, "[4]": {"system": "rats exposed to ozone", "test": "Severe ozone exposure (faulty ventilation, ozone above intended 1 ppm): death and glutathione", "format": "in vivo, rat", "text": "FIG. 5 depicts the protection offered by NRF2 activator Compound I against ozone-induced death (FIG. 5A) and loss of glutathione (FIG. 5B). Due to an unknown faulty ventilation system, ozone in the chamber built up to levels (unable to quantify) above those normally used in other studies. The intended exposure was 1 ppm. For those animals that survived, tissue values of NRF2-related parameters were examined 24 hrs. after ozone exposure. In addition, animals exposed to ozone within the control group were combined. All data represent means±S.E.M. (*, **, *** refer to p<0.05, 0.01 and 0.001, respectively). […]\n(§1) In another study, rats were exposed to ozone (2.0 ppm) for a 3 hr period twice a week with a resting period of 2 days between treatments. […] Ozone was generated (Oxycycler ozonator (model# A84ZV, Biospherix Inc., Lacona, N.Y.) by passing room air through the ozonator at a rate of 50-75 cm^3/min, mixing it with filtered room air at a rate of 10 L/min, and flowing this sample into a Plexiglass chamber containing the rodents. Ozone, carbon dioxide and humidity levels in the chamber were constantly monitored (Ozone Monitor Model 450, Teledyne Advanced Pollution Instrumentation, Inc., Thousand Oaks, Calif.). The animals were euthanized as described above 24 hrs after the last exposure to ozone. See FIG. 4-5."}, "[5]": {"system": "rats exposed to ozone", "test": "Ozone-induced lung injury (1 ppm of ozone for 3 hours)", "format": "in vivo, rat", "conditions": "3 μmol/kg i.t. 24 hours prior to 1 ppm ozone for 3 hours, sacrificed four hrs later", "description": "FIG. 4 depicts the effect of NRF2 activator Compound I on ozone-induced changes in lung wet to dry weight ratio (FIG. 4A) and relative mtDNA copy number (FIG. 4B). Rats were administered the NRF2 activator (3 μmol/kg i.t.) 24 hours prior to ozone exposure (1 ppm of ozone for 3 hours). Four hrs later the animals were sacrificed. All data represent means±S.E.M. (*, **, *** refer to p<0.05, 0.01 and 0.001, respectively).\nAge-matched male Lewis rats (250-400 g, Charles River Breeding Laboratories, Wilmington, Mass.) were allowed free access to food and water. Animals were administered NRF2 compound via tracheal instillation 24 hours prior to oxidative insult. […]\nas §1, with “4-5. […]” for “4-5.”"}, "[6]": {"system": "murine model of PQ-induced ALI", "conditions": "treatment with DNasel; cited from earlier work"}, "[7]": {"conditions": "relative to the PQ treated vehicle control animals, FIG. 3"}}, "note": "“Also recorded” adds a separate entry of the source.", "data": [{"molecule": "CC1(C)CC[C@]2(C(=O)O)CC[C@]3(C)[C@H](C(=O)C=C4[C@@]5(C)C=C(C#N)C(=O)C(C)(C)[C@@H]5CC[C@]43C)[C@@H]2C1", "note": "[Bardoxolone]", "values": [{"measurement": "protection from hyperoxia-induced ALI", "setting": "[1]", "value": "protected them from hyperoxia-induced ALI"}]}, {"molecule": "CC[C@@H]1CN(Cc2cc([C@H](CC(=O)O)c3ccc4c(nnn4CC)c3C)ccc2C)S(=O)(=O)c2cccnc2O1", "note": "[Compound I, (S)-3-(3-(((R)-4-ethyl-1,1-dioxido-3,4-dihydro-2H-pyrido[2,3-b][1,4,5]oxathiazepin-2-yl)methyl)-4-methylphenyl)-3-(1-ethyl-4-methyl-1H-benzo[d][1,2,3]triazol-5-yl)propanoic acid]", "values": [{"measurement": "degradation or breakdown of the alveolar barrier", "setting": "[2]; mice, ozone 1.5 ppm 3 hrs twice per week for 3 weeks", "value": "prevented; also recorded: protective effect"}, {"measurement": "surfactant D (serum surfactant protein-D), biomarker of epithelial/alveolar barrier integrity", "setting": "[2]; mice, ozone 1.5 ppm 3 hrs twice per week for 3 weeks, dosing 5 days/week, serum 2 hrs after final ozone exposure", "value": "dose dependently prevented"}, {"measurement": "changes in mtDNA", "setting": "[2]; repeated ozone exposures", "value": "dose dependently prevented"}, {"measurement": "inflammatory immune cells in bronchoalveolar lavage fluid (macrophages and neutrophils)", "setting": "[3]; paraquat-treated rats, FIG. 2", "value": "decreased numbers of immune cells in the bronchoalveolar lavage fluid; also recorded: reduction in inflammatory immune cells"}, {"measurement": "NQO1 activity (NRF2-mediated gene expression)", "setting": "[3]; rat lung, PQ-treated, FIG. 3B", "value": "stimulated an upregulation of NQO1 activity"}, {"measurement": "DNA oxidation (8-OHdG levels)", "setting": "[3]; rat lung, PQ-treated, FIG. 3C", "value": "attenuating the impact of PQ on DNA oxidation"}, {"measurement": "PQ-mediated mtDNA damage (relative mtDNA copy number)", "setting": "[3]; rat lung, FIG. 3A", "value": "blockade of mtDNA damage; also recorded: prevented"}, {"measurement": "lung function, expressed as Penh", "setting": "[3]; rats, Compound I suspension i.t. 24 hrs prior to PQ (0.05 mg/kg i.t.), FIG. 1A", "value": "improves lung function"}, {"measurement": "lung edema formation, lung wet:dry weight ratio", "setting": "[3]; rats, Compound I suspension i.t. 24 hrs prior to PQ (0.05 mg/kg i.t.), FIG. 1B", "value": "maintenance of the lung wet:dry ratio; also recorded: protecting against the PQ-induced increase in lung edema formation"}, {"measurement": "TXNRD1 gene expression", "setting": "[3]; [7]", "value": "exception"}, {"measurement": "expression of other NRF2 genes (GCLC, HO-1, etc.)", "setting": "[3]; [7]", "value": "up-regulated"}, {"measurement": "ozone-induced death (survival)", "setting": "[4]; severe ozone exposure, level unable to quantify (intended 1 ppm), FIG. 5A", "value": "protection; also recorded: survive the lethal insult"}, {"measurement": "ozone-induced loss of glutathione", "setting": "[4]; surviving animals, tissue 24 hrs after ozone exposure, FIG. 5B", "value": "protection"}, {"measurement": "ozone-induced edema formation (lung wet to dry weight ratio)", "setting": "[5]; FIG. 4A", "value": "protected"}, {"measurement": "ozone-induced mtDNA damage (relative mtDNA copy number)", "setting": "[5]; FIG. 4B", "value": "protected"}]}, {"molecule": "DNasel: DNasel, presumably targeting expulsed mtDNA (protein, UniProt P24855 23-282, looked up) Deoxyribonuclease-1: LKIAAFNIQTFGETKMSNATLVSYIVQILSRYDIALVQEVRDSHLTAVGKLLDNLNQDAPDTYHYVVSEPLGRNSYKERYLFVYRPDQVSAVDSYYYDDGCEPCGNDTFNREPAIVRFFSRFTEVREFAIVPLHAAPGDAVAEIDALYDVYLDVQEKWGLEDVMLMGDFNAGCSYVRPSQWSSIRLWTSPTFQWLIPDSADTTATPTHCAYDRIVVAGMLLRGAVVPDSALPFNFQAAYGLSDQLAQAISDHYPVEVMLK", "values": [{"measurement": "PQ-induced lung injury and survival", "setting": "[6]", "value": "Protection from PQ-induced lung injury and survival"}]}]}
